These results are taken from patent publication US9144569B2, “Methods of administering an aromatase inhibitor, prostaglandin and GnRH for regulating ovulation in cattle” (UNIVERSITY OF SASKATCHEWAN, priority 2010, dated 2015).

Marks after values point to notes of the source that are not given here.

One test relates to plasma FSH. As to the kind of experiment: Example I: plasma FSH by double-antibody radioimmunoassay after single iv dose. In kind it is in vivo, cattle. Conditions: by 72 hours after single iv dose, doses combined; P<0.03. On the procedure: Heifers in which a CL was detected during the initial examination were given […] cloprostenol (PGF, Estrumate™, Schering-Plough Animal Health, Pointe-Claire, QC, Canada) intramuscularly (im) to induce regression of the CL and to synchronize ovulation. Heifers were examined daily by transrectal ultrasonography to detect ovulation. Transvaginal ultrasound-guided follicular aspiration of follicles ≧5 mm was performed five to eight days after ovulation to synchronize wave emergence. Heifers were examined daily by transrectal ultrasonography to detect follicular wave emergence, which was expected 1 to 1.5 days after follicular ablation. […] For practical purposes, the dose of letrozole was calculated based on an average weight of 400 kg for all heifers. […]
Statistical analyses were done using the Statistical Analysis System software package (SAS Learning Edition 9.1, 2006; SAS Institute Inc., Cary, N.C., USA). Time-series hormone data, plasma letrozole concentration, and follicular diameter profiles were analyzed by repeated measures, using the PROC MIXED procedure. […]

Test [1] concerns Hereford-cross beef heifers. Put plainly: Example II: 3-day letrozole regimen in heifers, ovarian ultrasonography. It counts as in vivo, cattle. Conditions: for Inter-ovulatory interval / Inter-wave interval: 85 μg/kg/day iv; for Inter-wave interval: mean±SEM. On the procedure:
Hereford-cross beef heifers, 14 to 20 months of age and weighing between 233 and 404 kg, were chosen from a herd of 50 animals maintained in outdoor corrals at the University of Saskatchewan Goodale Research Farm (52° North and 106° West). Heifers were fed alfalfa/grass hay and grain to gain approximately 1.3 kg per day and had water ad libitum during the experimental period from May to July. Heifers were initially examined by transrectal ultrasonography (7.5 MHz linear-array transducer, Aloka SSD-900; Tokyo, Japan) to confirm that they were postpubertal by the presence of a CL [33].
Four days after follicular ablation, heifers were given 500 μg of cloprostenol (PGF, Estrumate, Schering-Plough Animal Health, Pointe-Claire, QC, Canada) intramuscularly (im) to induce regression of the CL and to synchronize ovulation. The experiment was performed in two replicates (n=20-27 per replicate) and each heifer was used only once. In replicate 1, heifers were assigned randomly at the time of ovulation (Day 0) to the following groups and given a 3-day regimen of letrozole from Days 1 to 3 (n=5), Days 3 to 5 (n=5), Days 5 to 7 (n=5), or no treatment (control group, n=5). In replicate 2, heifers were similarly assigned to groups and given letrozole from Days 1 to 3, (n=5), Days 3 to 5 (n=4), or Days 5 to 7 (n=4), but untreated control heifers were arranged in three sub-groups to serve as contemporaneous controls for each letrozole-group during intensive blood sampling periods (i.e., control Days 1 to 3, n=4; control Days 3 to 5, n=4; and control Days 5 to 7, n=5). For practical purposes, the total dose of letrozole (250 μg/kg) was calculated on the basis of an average weight of 350 kg for all heifers and administered intravenously in daily divided doses over 3 days (85 μg/kg per day). For intravenous injection, letrozole was prepared in 95% ethanol to a final concentration of 5 mg/ml, resulting in an injection volume of 6 mL/day.
Ultrasound examinations were recorded on a sketch sheet in which each ovary and its structures (CL [37] and follicles ≧4 mm in diameter) were represented in size and relative location. Ovulation was defined as the disappearance of any follicle ≧8 mm between two consecutive daily examinations, and was confirmed by the subsequent development of a CL [39]. Follicular wave emergence was defined retrospectively as the day when the dominant follicle was first identified at a diameter of 4 or 5 mm. If the dominant follicle was not identified until it reached 6 or 7 mm, the previous day was considered the day of follicular wave emergence. The dominant follicle of a wave was defined as the largest antral follicle of that wave after deviation, and the first subordinate follicle as the second largest antral follicle originated from the same wave. The day of onset of follicular and luteal regression was defined as the first day of an apparent constant decrease in follicular and luteal diameters, respectively.
Statistical analyses were done using the Statistical Analysis System software package (SAS Learning Edition 9.1, 2006; SAS Institute Inc., Cary, N.C., USA). Time-series hormone data, plasma letrozole concentration, and follicular and luteal diameter profiles were analysed by repeated measures, using the PROC MIXED procedure. The main effects were treatment, time, and their interactions. […] Single point measurements (interwave and interovulatory intervals, interval from ovulation to onset of CL regression, mean and basal LH concentrations, LH pulse amplitude and frequency, and pharmacokinetic parameters for letrozole) were analysed by analysis of variance. […] If significant main effects or interactions (P≦0.05) were detected, Tukey's post-hoc test was used for multiple comparisons.

Consider `N#Cc1ccc(C(c2ccc(C#N)cc2)n2cncn2)cc1` [Letrozole, letrozole], for which the “plasma FSH concentrations compared to controls” value in the test on plasma FSH is listed as “lower”. The Inter-ovulatory interval in test [1] (Days 1 to 3, n=10) is reported as 20.9 ± 0.46^a days; in test [1] (Days 3 to 5, n=9), 20.1 ± 0.49^a days; in test [1] (Days 5 to 7, n=9), 21.2 ± 0.49^a days. Besides, the Inter-wave interval in test [1] (Days 1 to 3, n=10) was 8.9 ± 0.35^a days; in test [1] (Days 3 to 5, n=9), 10.0 ± 0.37^ab days; in test [1] (Days 5 to 7, n=9), 10.7 ± 0.37^b days; in test [1] (Days 5 to 7, n=9, listed as letrozole) it was 10.7 days. In addition, the “growth of the extant dominant follicle compared to controls” value in test [1] (3-day regimen, treatment groups combined (n=28) vs untreated, P<0.01) was “grew longer and to a greater diameter”. In addition, the “diameter profile of the largest subordinate follicle compared to controls” value in test [1] (treated Days 1 to 3, P<0.05) is “larger”; in test [1] (treated Days 3 to 5), “intermediate”; in test [1] (treated Days 5 to 7), “intermediate”.
